In general, NOAEL refers to the highest tested level that showed no adverse finding.

The results in this text go back to EPA's ToxValDB 9.5 (doi:10.2903/j.efsa.2013.3220).

Values after ≈ are worked out from the molar mass of the structure shown.

For one data set, the system named is Aphidius rhopalosiphi. Kind of data set: LR50; higher = less toxic. The conditions noted are these: acute; duration: 48 hours; mortality.
In the next data set the test system is Typhlodromus pyri. Briefly: LR50; higher = less toxic. As to conditions: chronic/long-term; duration: 7 days; mortality.
For another data set, the system named is Zea sp. As to conditions: acute, duration: 14 days.
Another data set relates to Bibionidae. The conditions noted are these: chronic/long-term, duration: 28 days.
In another data set the test system is Colinus virginianus. As to conditions: for LD50: acute, oral, mortality.
Another data set concerns Pimephales promelas. The conditions noted are these: chronic/long-term; duration: 32 days; body weight.
Another data set has as its system Apis mellifera. As to conditions: acute, mortality.
In a further data set the test system is Lepomis macrochirus. As to conditions: acute; duration: 96 hours; mortality.
In the next data set the test system is Rattus norvegicus. The conditions noted are these: for LD50: acute, oral, mortality.
The next data set concerns Daphnia magna. The conditions noted are these: chronic/long-term, duration: 21 days.
The subject of the next data set is Canidae. As to conditions: chronic; duration: 1 years; oral; M/F; Dog Other; histopathology: nonneoplastic.

Consider `CCO[C@@H]1[C@@H](OC)[C@H](C)O[C@@H](OC2C[C@H]3CC[C@H]4C5CC(=O)O[C@@H](CC)CCC[C@H](O[C@H]6CC[C@H](N(C)C)[C@@H](C)O6)[C@@H](C)C(=O)C5=C[C@H]4[C@@H]3C2)[C@@H]1OC` (some centres not stated) [Spinetoram], for which the LR50 in the data set on Aphidius rhopalosiphi was 0.0885 g/ha; in the data set with Typhlodromus pyri, 0.132 g/ha. The LC50 with Tagia sp. (acute, duration: 14 days, mortality) was greater than 1000 mg/kg; in the data set on Lepomis macrochirus it was 2.69 µg/mL (≈ 3.6 µM). The NOEC in the data set on Tagia sp. (chronic/long-term, duration: 56 days, reproduction) was found to be 18.6 mg/kg; with Bibionidae (M/F, development) it was 97.2 µg/kg; in the data set on Bibionidae (development), 0.75 µg/L; in the data set with Pimephales promelas it was 0.182 mg/L; in the data set on Daphnia magna (mobility), 0.0624 µg/L. The LEC in the data set with Zea sp. (other) and in the data set on Zea sp. (seedling emergence) was no more than 150 g/ha each time. The LD50 in the data set on Colinus virginianus (diet) was greater than 2040 mg/kg-day; in the data set with Colinus virginianus, greater than 2250 mg/kg-day; in the data set with Apis mellifera (duration: 48 hours, dermal), 0.024 µg/piece; in the data set with Apis mellifera (duration: 72 hours, oral, unspecified) it was 0.11 µg/piece; in the data set with Anas platyrhynchos (acute, oral, unspecified, mortality) it was greater than 2250 mg/kg-day; in the data set on Rattus norvegicus, greater than 5000 mg/kg-day. The values for the NOEL in the data set on Colinus virginianus (reproduction developmental) and in the data set on Anas platyrhynchos (reproductive) were 95 mg/kg-day and 149 mg/kg-day, respectively. In addition, the no observed adverse effect level (NOAEL) in the data set with Rattus norvegicus (reproduction developmental, reproduction) came to 10 mg/kg-day; in the data set with Canidae it was 2.5 mg/kg-day.

In the case of `CCO[C@@H]1[C@@H](OC)[C@H](C)O[C@@H](O[C@@H]2C[C@H]3CC[C@@H]4[C@@H](C=C5C(=O)[C@H](C)[C@@H](O[C@H]6CC[C@H](NC)[C@@H](C)O6)CCC[C@H](CC)OC(=O)C[C@H]54)[C@@H]3C2)[C@@H]1OC` [N-demethyl-175-J], the figures for the NOEC in the data set on Bibionidae and with Daphnia magna were 0.617 µg/L and 0.03 µg/L, respectively. Also, the LC50 in the data set on Lepomis macrochirus is 2.98 µg/mL (≈ 4.06 µM). The same compound showed an LD50 with Rattus norvegicus of 3130 mg/kg-day.

For the compound `CCO[C@@H]1[C@@H](OC)[C@H](C)O[C@@H](O[C@@H]2C[C@H]3CC[C@@H]4[C@@H](C=C5C(=O)[C@H](C)[C@@H](O[C@H]6CC[C@H](N(C)C=O)[C@@H](C)O6)CCC[C@H](CC)OC(=O)C[C@H]54)[C@@H]3C2)[C@@H]1OC` [N-demethyl-175-L], the LC50 in the data set with Lepomis macrochirus turned out to be 1.55 µg/mL (≈ 2.03 µM). Moreover, the NOEC in the data set on Daphnia magna was 0.027 µg/L.
